Measured values as given in ChEMBL document CHEMBL1165933, “Diosgenin, a plant-derived sapogenin, enhances regulatory T-cell immunity in the intestine of mice with food allergy” (J Nat Prod, 2010).
The source made the active and inactive calls. No cut-off for these calls is given here.

Columns and labels:
Format in all cases: functional, organism-based
Mus musculus [1] = assay: Effect on T-cell infiltration in ovalbumin-sensitized and repeatedly challenged BALB/c mouse food allergy model assessed as CD3+ cells at 200 mg/kg, po by immunohistochemistry; parameters: dose 200 mg/kg
Mus musculus [2] = assay: Antiallergic effect in ovalbumin-sensitized and repeatedly challenged BALB/c mouse food allergy model assessed as attenuation of duodenal interleukin-4 expression at 200 mg/kg, po by immunohistochemistry; parameters: dose 200 mg/kg
Mus musculus [3] = assay: Enhancement in regulatory T-cell immunity in intestine of ovalbumin-sensitized and repeatedly challenged BALB/c mouse food allergy model assessed as increase in Foxp3+ and IL10+ cells at 100 mg/kg, po by RT-PCR; parameters: dose 100 mg/kg
Mus musculus [4] = assay: Enhancement in regulatory T-cell immunity in intestine of ovalbumin-sensitized and repeatedly challenged BALB/c mouse food allergy model assessed as increase in Foxp3+ and IL10+ cells at 100 mg/kg, po by immunohistochemistry; parameters: dose 100 mg/kg
Mus musculus [5] = assay: Antiallergic effect in ovalbumin-sensitized and repeatedly challenged BALB/c mouse food allergy model assessed as inhibition of duodenal GATA3 expression at 100 mg/kg, po by immunohistochemistry; parameters: dose 100 mg/kg
Mus musculus [6] = assay: Antiallergic effect in ovalbumin-sensitized and repeatedly challenged BALB/c mouse food allergy model assessed as inhibition of duodenal GATA3 expression at 200 mg/kg, po by immunohistochemistry; parameters: dose 200 mg/kg
Mus musculus [7] = assay: Antiallergic effect in ovalbumin-sensitized and repeatedly challenged BALB/c mouse food allergy model assessed as attenuation of duodenal interleukin-4 expression at 100 mg/kg, po by immunohistochemistry; parameters: dose 100 mg/kg
Mus musculus [8] = assay: Enhancement in regulatory T-cell immunity in intestine of ovalbumin-sensitized and repeatedly challenged BALB/c mouse food allergy model assessed as increase in Foxp3+ and IL10+ cells at 200 mg/kg, po by immunohistochemistry; parameters: dose 200 mg/kg
Mus musculus [9] = assay: Effect on T-cell infiltration in ovalbumin-sensitized and repeatedly challenged BALB/c mouse food allergy model assessed as CD3+ cells at 100 mg/kg, po by immunohistochemistry; parameters: dose 100 mg/kg
Mus musculus [10] = assay: Enhancement in regulatory T-cell immunity in intestine of ovalbumin-sensitized and repeatedly challenged BALB/c mouse food allergy model assessed as increase in Foxp3+ and IL10+ cells at 200 mg/kg, po by RT-PCR; parameters: dose 200 mg/kg
Mus musculus [11] = assay: Effect on TGFbeta+ cells in ovalbumin-sensitized and repeatedly challenged BALB/c mouse food allergy model at 200 mg/kg, po by immunohistochemistry; parameters: dose 200 mg/kg
Mus musculus [12] = assay: Effect on TGFbeta+ cells in ovalbumin-sensitized and repeatedly challenged BALB/c mouse food allergy model at 100 mg/kg, po by immunohistochemistry; parameters: dose 100 mg/kg

Structure (SMILES): C[C@@H]1CC[C@@]2(OC1)O[C@H]1C[C@H]3[C@@H]4CC=C5C[C@@H](O)CC[C@]5(C)[C@H]4CC[C@]3(C)[C@H]1[C@@H]2C
- Activity (Mus musculus [1]): inactive
- inhibition (Mus musculus [2]): Active
- Activity (Mus musculus [3]): Active
- Activity (Mus musculus [4]): Active
- inhibition (Mus musculus [5]): Active
- inhibition (Mus musculus [6]): Active
- inhibition (Mus musculus [7]): Active
- Activity (Mus musculus [8]): Active
- Activity (Mus musculus [9]): inactive
- Activity (Mus musculus [10]): Active
- Activity (Mus musculus [11]): inactive
- Activity (Mus musculus [12]): inactive
